The subject of this experiment is L1210 leukemia ip in BDF1 mice, survival T/C. The experiment can be described thus: NCI In Vivo Anticancer Drug Screen. Data for tumor model L1210 Leukemia (intraperitoneal) in B6D2F1 (BDF1) mice. The note with it: endpoint: mean survival time, higher = longer survival. In short, it runs like this: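 Transplantable tumor model; survival measured in treated vs vehicle control mice. Value = treated/control.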

Setting [1] is: dose: 100.0 mg/kg/injection, schedule: Q04DX002 (ip), vehicle: Klucel (hydroxypropylcellulose) (HPC).
Where [2] appears, read: dose: 100.0 mg/kg/injection, schedule: Q04DX003 (ip), vehicle: saline with Tween-80.
[3] abbreviates: dose: 200.0 mg/kg/injection, schedule: Q04DX002 (ip), vehicle: Klucel (hydroxypropylcellulose) (HPC).
Where [4] appears, read: dose: 200.0 mg/kg/injection, schedule: Q04DX003 (ip), vehicle: saline with Tween-80.
Setting [5] is: dose: 400.0 mg/kg/injection, schedule: Q04DX002 (ip), vehicle: Klucel (hydroxypropylcellulose) (HPC).
Setting [6] is: dose: 100.0 mg/kg/injection, schedule: Q01DX009 (ip), vehicle: Klucel (hydroxypropylcellulose) (HPC).
Where [7] appears, read: dose: 200.0 mg/kg/injection, schedule: Q01DX009 (ip), vehicle: Klucel (hydroxypropylcellulose) (HPC).
The mark [8] stands for this setting: dose: 100.0 mg/kg/injection, schedule: Q04DX003 (ip), vehicle: Klucel (hydroxypropylcellulose) (HPC).
Where [9] appears, read: dose: 200.0 mg/kg/injection, schedule: Q04DX003 (ip), vehicle: Klucel (hydroxypropylcellulose) (HPC).
Where [10] appears, read: dose: 400.0 mg/kg/injection, schedule: Q04DX003 (ip), vehicle: Klucel (hydroxypropylcellulose) (HPC).
The mark [11] stands for this setting: dose: 50.0 mg/kg/injection, schedule: Q01DX001 (ip), vehicle: saline.
Where [12] appears, read: dose: 100.0 mg/kg/injection, schedule: Q01DX001 (ip), vehicle: saline.
Where [13] appears, read: dose: 200.0 mg/kg/injection, schedule: Q01DX001 (ip), vehicle: saline.
[14] abbreviates: dose: 400.0 mg/kg/injection, schedule: Q01DX001 (ip), vehicle: saline.

Where “and” joins values, the source holds several entries; their conditions need not be identical. Identical values can stand only once. Toxic doses and inconclusive results are not listed.

Turning to `CN(CCOS(C)(=O)=O)CCOS(C)(=O)=O`, the T/C (dose: 0.1 mg/kg/injection, schedule: Q01DX009 (ip), vehicle: saline) was 123 % of control; the T/C (dose: 0.17 mg/kg/injection, schedule: Q01DX009 (ip), vehicle: saline) is 118 % of control; the T/C (dose: 0.2 mg/kg/injection, schedule: Q01DX009 (ip), vehicle: saline) is 161 % of control; the T/C (dose: 0.26 mg/kg/injection, schedule: Q01DX009 (ip), vehicle: saline) is 122 % of control; the T/C (dose: 0.28 mg/kg/injection, schedule: Q01DX001 (ip), vehicle: saline) was 110 % of control; the T/C (dose: 0.4 mg/kg/injection, schedule: Q01DX001 (ip), vehicle: saline) was 115 % of control. Also, the T/C was 183 % of control (dose: 0.4 mg/kg/injection, schedule: Q01DX009 (ip), vehicle: saline); 121 % of control (dose: 0.44 mg/kg/injection, schedule: Q01DX001 (ip), vehicle: saline); 101 % of control (dose: 0.66 mg/kg/injection, schedule: Q01DX009 (ip), vehicle: saline); 163 % of control (dose: 0.8 mg/kg/injection, schedule: Q01DX009 (ip), vehicle: saline); 109 % of control (dose: 1.0 mg/kg/injection, schedule: Q01DX009 (ip), vehicle: saline); 88 % of control (dose: 1.5 mg/kg/injection, schedule: Q01DX009 (ip), vehicle: saline). Also, the T/C was 92 % of control (dose: 1.6 mg/kg/injection, schedule: Q01DX009 (ip), vehicle: saline); 156 % of control (dose: 2.25 mg/kg/injection, schedule: Q01DX001 (ip), vehicle: saline); 104 % of control (dose: 4.5 mg/kg/injection, schedule: Q01DX001 (ip), vehicle: saline); 113 % of control (dose: 38.0 micrograms/kg/injection, schedule: Q01DX009 (ip), vehicle: saline); 123 % of control (dose: 58.0 micrograms/kg/injection, schedule: Q01DX009 (ip), vehicle: saline); 115 % of control (dose: 88.0 micrograms/kg/injection, schedule: Q01DX009 (ip), vehicle: saline). Moreover, the T/C was 151 % of control (dose: 132.0 micrograms/kg/injection, schedule: Q01DX009 (ip), vehicle: saline) and 90 % of control (dose: 200.0 micrograms/kg/injection, schedule: Q01DX009 (ip), vehicle: saline).

`FC(F)(F)c1nc2nc(Cl)c(Cl)nc2s1`: the T/C is 116 % of control (dose: 0.5 mg/kg/injection, schedule: Q01DX009 (ip), vehicle: other); 106 % of control (dose: 1.0 mg/kg/injection, schedule: Q01DX009 (ip), vehicle: other); 101 % of control (dose: 2.0 mg/kg/injection, schedule: Q01DX009 (ip), vehicle: other); 114 % of control (dose: 3.12 mg/kg/injection, schedule: Q01DX009 (ip), vehicle: other); 107 % of control (dose: 4.0 mg/kg/injection, schedule: Q01DX009 (ip), vehicle: other); 103 % of control (dose: 6.25 mg/kg/injection, schedule: Q01DX009 (ip), vehicle: other). Further, the T/C is 103 % of control (dose: 12.5 mg/kg/injection, schedule: Q01DX009 (ip), vehicle: other); 101 % of control and 103 % of control (dose: 25.0 mg/kg/injection, schedule: Q01DX009 (ip), vehicle: other).

Consider `O=S(=O)(c1ccc2ccccc2c1)C1CC1c1ccccc1` (stereo not drawn), for which the T/C was 92 % of control (dose: 100.0 mg/kg/injection, schedule: Q01DX001 (ip), vehicle: acetone); 98 % of control (dose: 200.0 mg/kg/injection, schedule: Q01DX001 (ip), vehicle: acetone); 93 % of control (dose: 400.0 mg/kg/injection, schedule: Q01DX001 (ip), vehicle: acetone).

On to `OCC1(Br)CCC(Br)(CO)CC1` (stereo not drawn), for which the T/C is, setting by setting: under setting [1], 103 % of control; under setting [2], 104 % of control; under setting [3], 111 % of control; under setting [4], 98 % of control; under setting [5], 107 % of control; (dose: 400.0 mg/kg/injection, schedule: Q04DX003 (ip), vehicle: saline with Tween-80) 96 % of control.

For `N#CC(C#N)=CN1CCCC1`, the T/C is, setting by setting: (dose: 5.0 mg/kg/injection, schedule: Q01DX009 (ip), vehicle: saline with Tween-80) 89 % of control; (dose: 10.0 mg/kg/injection, schedule: Q01DX009 (ip), vehicle: saline with Tween-80) 91 % of control; (dose: 20.0 mg/kg/injection, schedule: Q01DX009 (ip), vehicle: saline with Tween-80) 93 % of control.

As to `COC(=O)c1ccc(C(=O)NCCCc2c(C)nc(N)[nH]c2=O)cc1`, the T/C (dose: 100.0 mg/kg/injection, schedule: Q01DX001 (ip), vehicle: Klucel (hydroxypropylcellulose) (HPC)) is 97 % of control; the T/C (dose: 200.0 mg/kg/injection, schedule: Q01DX001 (ip), vehicle: Klucel (hydroxypropylcellulose) (HPC)) was 92 % of control; the T/C (dose: 400.0 mg/kg/injection, schedule: Q01DX001 (ip), vehicle: Klucel (hydroxypropylcellulose) (HPC)) was 92 % of control.

In the case of `FC(F)(F)c1ccccc1NC(=S)N(Cc1ccccc1)Cc1ccccc1`, the T/C by setting is: under setting [6], 92 % of control; under setting [1], 110 % of control; under setting [7], 103 % of control; under setting [3], 92 % of control; (dose: 400.0 mg/kg/injection, schedule: Q01DX009 (ip), vehicle: Klucel (hydroxypropylcellulose) (HPC)) 96 % of control; under setting [5], 100 % of control.

As for `O=CCSC(=S)NNc1ccccc1`, the T/C is, setting by setting: under setting [6], 106 % of control; under setting [8], 88 % of control; under setting [7], 95 % of control; under setting [9], 91 % of control; under setting [10], 96 % of control.

`O=[N+]([O-])c1nccn1C1OC(CO)C(O)C1O` (stereo not drawn): the T/C is 98 % of control under setting [11], 98 % of control under setting [12], 102 % of control under setting [13] and 102 % of control under setting [14].

For the compound `CC(=O)Nc1ccc(O)cc1[N+](=O)[O-]`, the T/C was 107 % of control under setting [8], 103 % of control under setting [9] and 103 % of control under setting [10].

For the compound `CCC(C(C)C)C1NC1C(C)C1CCC2C3CC=C4CC(OC(C)=O)CCC4(C)C3CCC12C` (stereo not drawn), the T/C (dose: 100.0 mg/kg/injection, schedule: Q04DX003 (sc), vehicle: steriod suspending solution) was 105 % of control; the T/C (dose: 200.0 mg/kg/injection, schedule: Q04DX003 (sc), vehicle: steriod suspending solution) is 103 % of control; the T/C (dose: 400.0 mg/kg/injection, schedule: Q04DX003 (sc), vehicle: steriod suspending solution) is 97 % of control.

For the compound `CSC(=O)SC`, where the note is “dose: 100.0 mg/kg/injection, schedule: Q01DX009 (ip), vehicle: saline with Tween-80”, the T/C is 101 % of control.

Take `C#CCN1C(=O)C(c2ccccc2)C2(CCN(C)CC2)C1=O` (stereo not drawn): the T/C (dose: 100.0 mg/kg/injection, schedule: Q01DX001 (ip), vehicle: saline with Tween-80) was 105 % of control and the T/C (dose: 200.0 mg/kg/injection, schedule: Q01DX001 (ip), vehicle: saline with Tween-80) was 108 % of control.

As for `OCC(O)C(O)C(O)C(c1ccc(Cl)cc1)c1ccc(Cl)cc1` (stereo not drawn), the T/C under setting [11] is 104 % of control and 103 % of control and 101 % of control; the T/C under setting [12] was 102 % of control and 103 % of control and 97 % of control; the T/C under setting [13] is 98 % of control and 101 % of control and 97 % of control; the T/C under setting [14] is 96 % of control and 91 % of control and 101 % of control.

On to `Nc1nc(C=O)c(CCc2ccccc2)c(=O)[nH]1`, for which the T/C is 100 % of control under setting [2] and 97 % of control under setting [4].

On to `Oc1cc(CN2CCCC2)c(O)cc1CN1CCCC1`, for which the T/C is 111 % of control (dose: 75.0 mg/kg/injection, schedule: Q01DX001 (ip), vehicle: carboxymethylcellulose (CMC)) and 105 % of control (dose: 150.0 mg/kg/injection, schedule: Q01DX001 (ip), vehicle: carboxymethylcellulose (CMC)).

For the compound `CC(Br)C(=O)c1cccc2ccccc12` (stereo not drawn), the T/C (dose: 25.0 mg/kg/injection, schedule: Q04DX003 (ip), vehicle: Klucel (hydroxypropylcellulose) (HPC)) is 90 % of control; the T/C (dose: 50.0 mg/kg/injection, schedule: Q04DX003 (ip), vehicle: Klucel (hydroxypropylcellulose) (HPC)) was 90 % of control; the T/C under setting [8] is 97 % of control and 98 % of control.

(Values after PubChem BioAssay AID248 (DTP/NCI, 2004).)
